Measurements reported in BigSolDB 2.1.

## Sc1nc2ccccc2[nH]1
In 1,4-dioxane, 278.15 K
  solubility (mole fraction): 0.0141
In 1,4-dioxane, 283.15 K
  solubility (mole fraction): 0.0153
In 1,4-dioxane, 288.15 K
  solubility (mole fraction): 0.0166
In 1,4-dioxane, 293.15 K
  solubility (mole fraction): 0.0181
In 1,4-dioxane, 298.15 K
  solubility (mole fraction): 0.0195
In 1,4-dioxane, 303.15 K
  solubility (mole fraction): 0.021
In 1,4-dioxane, 308.15 K
  solubility (mole fraction): 0.0227
In 1,4-dioxane, 313.15 K
  solubility (mole fraction): 0.0246
In 1,4-dioxane, 318.15 K
  solubility (mole fraction): 0.0265
In 2-butanone, 278.15 K
  solubility (mole fraction): 0.0103
In 2-butanone, 283.15 K
  solubility (mole fraction): 0.011
In 2-butanone, 288.15 K
  solubility (mole fraction): 0.0117
In 2-butanone, 293.15 K
  solubility (mole fraction): 0.0124
In 2-butanone, 298.15 K
  solubility (mole fraction): 0.0133
In 2-butanone, 303.15 K
  solubility (mole fraction): 0.0141
In 2-butanone, 308.15 K
  solubility (mole fraction): 0.0151
In 2-butanone, 313.15 K
  solubility (mole fraction): 0.0162
In 2-butanone, 318.15 K
  solubility (mole fraction): 0.0172
In acetone, 278.15 K
  solubility (mole fraction): 0.0121
In acetone, 283.15 K
  solubility (mole fraction): 0.0128
In acetone, 288.15 K
  solubility (mole fraction): 0.0135
In acetone, 293.15 K
  solubility (mole fraction): 0.0143
In acetone, 298.15 K
  solubility (mole fraction): 0.0152
In acetone, 303.15 K
  solubility (mole fraction): 0.016
In acetone, 308.15 K
  solubility (mole fraction): 0.0169
In acetone, 313.15 K
  solubility (mole fraction): 0.0179
In acetone, 318.15 K
  solubility (mole fraction): 0.0189
In acetonitrile, 278.15 K
  solubility (mole fraction): 0.00102
In acetonitrile, 283.15 K
  solubility (mole fraction): 0.00115
In acetonitrile, 288.15 K
  solubility (mole fraction): 0.00129
In acetonitrile, 293.15 K
  solubility (mole fraction): 0.00146
In acetonitrile, 298.15 K
  solubility (mole fraction): 0.00163
In acetonitrile, 303.15 K
  solubility (mole fraction): 0.00183
In acetonitrile, 308.15 K
  solubility (mole fraction): 0.00205
In acetonitrile, 313.15 K
  solubility (mole fraction): 0.00228
In acetonitrile, 318.15 K
  solubility (mole fraction): 0.00257
In cyclohexane, 278.15 K
  solubility (mole fraction): 4.36e-06
In cyclohexane, 283.15 K
  solubility (mole fraction): 5.51e-06
In cyclohexane, 288.15 K
  solubility (mole fraction): 7.05e-06
In cyclohexane, 293.15 K
  solubility (mole fraction): 8.99e-06
In cyclohexane, 298.15 K
  solubility (mole fraction): 1.16e-05
In cyclohexane, 303.15 K
  solubility (mole fraction): 1.49e-05
In cyclohexane, 308.15 K
  solubility (mole fraction): 1.88e-05
In cyclohexane, 313.15 K
  solubility (mole fraction): 2.27e-05
In cyclohexane, 318.15 K
  solubility (mole fraction): 2.81e-05
In ethanol, 278.15 K
  solubility (mole fraction): 0.00532
In ethanol, 283.15 K
  solubility (mole fraction): 0.00634
In ethanol, 288.15 K
  solubility (mole fraction): 0.00746
In ethanol, 293.15 K
  solubility (mole fraction): 0.00868
In ethanol, 298.15 K
  solubility (mole fraction): 0.00998
In ethanol, 303.15 K
  solubility (mole fraction): 0.0114
In ethanol, 308.15 K
  solubility (mole fraction): 0.0126
In ethanol, 313.15 K
  solubility (mole fraction): 0.0142
In ethanol, 318.15 K
  solubility (mole fraction): 0.0158
In ethyl acetate, 278.15 K
  solubility (mole fraction): 0.00198
In ethyl acetate, 283.15 K
  solubility (mole fraction): 0.00236
In ethyl acetate, 288.15 K
  solubility (mole fraction): 0.00275
In ethyl acetate, 293.15 K
  solubility (mole fraction): 0.00318
In ethyl acetate, 298.15 K
  solubility (mole fraction): 0.00366
In ethyl acetate, 303.15 K
  solubility (mole fraction): 0.00413
In ethyl acetate, 308.15 K
  solubility (mole fraction): 0.00463
In ethyl acetate, 313.15 K
  solubility (mole fraction): 0.00518
In ethyl acetate, 318.15 K
  solubility (mole fraction): 0.00577
In isopropanol, 278.15 K
  solubility (mole fraction): 0.0034
In isopropanol, 283.15 K
  solubility (mole fraction): 0.00435
In isopropanol, 288.15 K
  solubility (mole fraction): 0.00528
In isopropanol, 293.15 K
  solubility (mole fraction): 0.00635
In isopropanol, 298.15 K
  solubility (mole fraction): 0.00755
In isopropanol, 303.15 K
  solubility (mole fraction): 0.0088
In isopropanol, 308.15 K
  solubility (mole fraction): 0.0102
In isopropanol, 313.15 K
  solubility (mole fraction): 0.0116
In isopropanol, 318.15 K
  solubility (mole fraction): 0.0132
In methanol, 278.15 K
  solubility (mole fraction): 0.00625
In methanol, 283.15 K
  solubility (mole fraction): 0.0073
In methanol, 288.15 K
  solubility (mole fraction): 0.00848
In methanol, 293.15 K
  solubility (mole fraction): 0.00964
In methanol, 298.15 K
  solubility (mole fraction): 0.0109
In methanol, 303.15 K
  solubility (mole fraction): 0.0123
In methanol, 308.15 K
  solubility (mole fraction): 0.0138
In methanol, 313.15 K
  solubility (mole fraction): 0.0152
In methanol, 318.15 K
  solubility (mole fraction): 0.0169
In n-butanol, 278.15 K
  solubility (mole fraction): 0.0041
In n-butanol, 283.15 K
  solubility (mole fraction): 0.0049
In n-butanol, 288.15 K
  solubility (mole fraction): 0.0058
In n-butanol, 293.15 K
  solubility (mole fraction): 0.0069
In n-butanol, 298.15 K
  solubility (mole fraction): 0.00809
In n-butanol, 303.15 K
  solubility (mole fraction): 0.00941
In n-butanol, 308.15 K
  solubility (mole fraction): 0.0109
In n-butanol, 313.15 K
  solubility (mole fraction): 0.0125
In n-butanol, 318.15 K
  solubility (mole fraction): 0.0144
In n-propanol, 278.15 K
  solubility (mole fraction): 0.00484
In n-propanol, 283.15 K
  solubility (mole fraction): 0.00559
In n-propanol, 288.15 K
  solubility (mole fraction): 0.0065
In n-propanol, 293.15 K
  solubility (mole fraction): 0.00759
In n-propanol, 298.15 K
  solubility (mole fraction): 0.00872
In n-propanol, 303.15 K
  solubility (mole fraction): 0.00999
In n-propanol, 308.15 K
  solubility (mole fraction): 0.0114
In n-propanol, 313.15 K
  solubility (mole fraction): 0.0131
In n-propanol, 318.15 K
  solubility (mole fraction): 0.0151
In toluene, 278.15 K
  solubility (mole fraction): 2.01e-05
In toluene, 283.15 K
  solubility (mole fraction): 2.73e-05
In toluene, 288.15 K
  solubility (mole fraction): 3.51e-05
In toluene, 293.15 K
  solubility (mole fraction): 4.35e-05
In toluene, 298.15 K
  solubility (mole fraction): 5.3e-05
In toluene, 303.15 K
  solubility (mole fraction): 6.38e-05
In toluene, 308.15 K
  solubility (mole fraction): 7.53e-05
In toluene, 313.15 K
  solubility (mole fraction): 8.87e-05
In toluene, 318.15 K
  solubility (mole fraction): 0.000104
